According to ChEMBL document CHEMBL3297673, “Antifungal amphidinol 18 and its 7-sulfate derivative from the marine dinoflagellate Amphidinium carterae” (J Nat Prod, 2014):
≈ marks a conversion by molar mass, not a printed value. Calls of active or inactive are those of the source. The rule behind the calls is not given here.

How the values were obtained:
Candida albicans = assay: Antifungal activity against Candida albicans after 48 hrs by broth microdilution method; type: functional
[1] = Toxicity in erythrocytes (unknown origin) assessed as hemolytic activity; type: cell-based; conditions: erythrocyte

| MIC (Candida albicans) | Structure (SMILES) | Activity (Candida albicans) | Activity [1] |
| --- | --- | --- | --- |
| – | C=C/C=C/CC/C=C/C=C/C=C/CC/C=C/[C@H](O)[C@H](O)[C@@H]1O[C@@H]([C@H](O)[C@H](O)C(=C)CC[C@@H](O)[C@H]2C[C@@H](O)[C@@H](O)[C@H]([C@@H](O)[C@H](O)/C=C(\C)CCC(O)CC(O)C(O)C(C)CC(O)C(O)CC(C)CCC(O)CC(=O)CC(O)CCCC(CCCCC(O)CO)OS(=O)(=O)[O-])O2)C[C@@H](O)[C@H]1O.[Na+] (some centres undefined) | inactive | Toxic |
| 9 µg/mL (≈ 6.62 µM) | C=C/C=C/CC/C=C/C=C/C=C/CC/C=C/[C@H](O)[C@H](O)[C@@H]1O[C@@H]([C@H](O)[C@H](O)C(=C)CC[C@@H](O)[C@H]2C[C@@H](O)[C@@H](O)[C@H]([C@@H](O)[C@H](O)/C=C(\C)CCC(O)CC(O)C(O)C(C)CC(O)C(O)CC(C)CCC(O)CC(=O)CC(O)CCCC(O)CCCCC(O)CO)O2)C[C@@H](O)[C@H]1O (some centres undefined) | – | Toxic |
